The values below come from BindingDB's records for PubMed 8301592 (Washington University, 1994).

This assay addresses D(3) dopamine receptor (Rattus norvegicus, UniProt P19020).

As a reminder, the Ki is a measure of affinity in units of concentration, obtained from inhibition or displacement. A low value points to tighter binding.

Several values for one entry are separate records, joined by “and”; a condition that tells them apart may be missing. Equal values may be shown once.

D(3) dopamine receptor, sequence (P19020 whole entry): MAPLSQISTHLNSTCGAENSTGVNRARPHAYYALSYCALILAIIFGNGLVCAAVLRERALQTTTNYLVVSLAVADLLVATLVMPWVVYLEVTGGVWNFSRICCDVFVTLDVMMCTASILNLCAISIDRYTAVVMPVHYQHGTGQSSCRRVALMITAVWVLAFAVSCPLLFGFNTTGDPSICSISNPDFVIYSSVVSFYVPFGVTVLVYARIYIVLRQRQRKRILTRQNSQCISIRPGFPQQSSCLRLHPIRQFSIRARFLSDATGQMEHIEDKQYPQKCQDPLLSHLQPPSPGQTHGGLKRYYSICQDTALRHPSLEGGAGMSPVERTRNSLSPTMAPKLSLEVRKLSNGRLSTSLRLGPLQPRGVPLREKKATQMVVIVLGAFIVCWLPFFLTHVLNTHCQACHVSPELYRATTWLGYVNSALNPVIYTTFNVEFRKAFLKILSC

Regarding `CCc1cc(Cl)c(OC)c(C(=O)NC[C@@H]2CCCN2CC)c1O` [3-Chloro-5-ethyl-N-((S)-1-ethyl-pyrrolidin-2-ylmethyl)-6-hydroxy-2-methoxy-benzamide], the inhibition constant (Ki) was 0.00016 µM and 0.00046 µM.

Regarding `Nc1nc2c(ncn2[C@@H]2O[C@H](COP(=O)(O)OP(=O)(O)NP(=O)(O)O)[C@@H](O)[C@H]2O)c(=O)[nH]1` [Guanylyl imidodiphosphate], the Ki was 0.264 µM and 0.617 µM.
